Test results reported in patent publication US6737383B1, “Herbicidal oxadiazolidines” (priority 1999, dated 2004).

Key:
[1] = test system: morningglory; assay: Test B pre/postemergence morningglory; format: in vivo, Ipomoea hederacea
How it was run: (§1)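 Response is a visual 0-to-10 score relative to untreated plants, where 0 means no effect and 10 means complete control, taken twelve to sixteen days after application. Treatments went onto soil at planting and onto foliage of 1- to 4-leaf plants, using a surfactant-containing non-phytotoxic solvent.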

[2] = test system: giant foxtail; assay: Test B pre/postemergence giant foxtail; format: in vivo, Setaria faberii
How it was run: as §1

[3] = test system: rice; assay: Test B flood test rice; format: in vivo, Oryza sativa; conditions: for Plant response rating, Rice (0 to 10 scale, 0 is no effect, 10 is complete control) / Rice plant response rating (0 to 10 scale, 0 is no effect, 10 is complete control): visual evaluation after twelve to sixteen days; for Rice plant response rating (0 to 10 scale, 0 is no effect, 10 is complete control): under heading Pre-emergence
How it was run: (§2)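 Read-out is a visual response score from 0 (no effect) to 10 (complete control), assigned by comparison with untreated controls. Treatment was applied at the 2-leaf stage, and plants stayed in the greenhouse for twelve to sixteen days before scoring.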

[4] = test system: duck salad; assay: Test B flood test duck salad; format: in vivo, Heteranthera limosa; conditions: for Plant response rating, Ducksalad (0 to 10 scale, 0 is no effect, 10 is complete control) / Ducksalad plant response rating (0 to 10 scale, 0 is no effect, 10 is complete control): visual evaluation after twelve to sixteen days; for Ducksalad plant response rating (0 to 10 scale, 0 is no effect, 10 is complete control): under heading Pre-emergence
How it was run: as §2

[5] = Postemergence, Rate 250 g/ha, scale 0 to 10, 0 is no effect, 10 is complete control
[6] = Postemergence, Rate 500 g/ha, scale of 0 to 10 where 0 is no effect and 10 is complete control
[7] = Preemergence, Rate 62 g/ha, scale 0 to 10 (0 no effect, 10 complete control)
[8] = Preemergence, Rate 125 g/ha, scale of 0 to 10 where 0 is no effect and 10 is complete control
[9] = Preemergence, Rate 250 g/ha, scale of 0 to 10 where 0 is no effect and 10 is complete control
[10] = Preemergence, Rate 500 g/ha, scale of 0 to 10 where 0 is no effect and 10 is complete control
[11] = Rate 62 g/ha, Postemergence, scale of 0 to 10 where 0 is no effect and 10 is complete control
[12] = Postemergence, Rate 125 g/ha, scale 0 to 10, 0 is no effect, 10 is complete control
[13] = Rate 62 g/ha, flood test species, Pre-emergence
[14] = Rate 125 g/ha, flood test species
[15] = Rate 250 g/ha, Pre-emergence, flood-test species, scale 0 to 10, 0 is no effect, 10 is complete control
[16] = Rate 500 g/ha, Pre-emergence, flood test species, scale 0 to 10 (0 no effect, 10 complete control)
[17] = Postemergence, Rate 62 g/ha, scale 0 to 10, 0 is no effect, 10 is complete control
[18] = Postemergence, Rate 125 g/ha, scale of 0 to 10 where 0 is no effect and 10 is complete control
[19] = Postemergence, Rate 250 g/ha, scale of 0 to 10, 0 is no effect, 10 is complete control
[20] = Preemergence, Rate 250 g/ha, scale 0 to 10 (0 no effect, 10 complete control)
[21] = Rate 250 g/ha, Pre-emergence (flood test species), scale 0 to 10, 0 is no effect, 10 is complete control
[22] = Rate 500 g/ha, Pre-emergence section of Table B, 0 to 10 scale (0 no effect, 10 complete control)
[23] = Preemergence, Rate 250 g/ha, scale 0 to 10, 0 is no effect, 10 is complete control
[24] = Preemergence, Rate 500 g/ha, scale 0 to 10, 0 is no effect, 10 is complete control
[25] = Postemergence section (flood test species), Rate 500 g/ha, scale of 0 to 10 where 0 is no effect and 10 is complete control
[26] = flood test species, listed under Postemergence, Rate 250 g/ha, scale 0 to 10, 0 is no effect, 10 is complete control
[27] = Postemergence, Rate 250 g/ha, scale 0 to 10, 0 no effect, 10 complete control
[28] = Preemergence, Rate 62 g/ha, scale 0 to 10, 0 is no effect, 10 is complete control
[29] = Preemergence, Rate 125 g/ha, scale 0 to 10 (0 no effect, 10 complete control)
[30] = Preemergence, Rate 500 g/ha, scale 0 (no effect) to 10 (complete control)
[31] = Rate 125 g/ha, Postemergence, scale 0 to 10, 0 no effect, 10 complete control
[32] = Rate 500 g/ha, Postemergence, 0 to 10 scale (0 no effect, 10 complete control)
[33] = Rate 125 g/ha, Postemergence section (flood test species), scale 0 to 10, 0 no effect, 10 complete control
[34] = Rate 500 g/ha, Postemergence section of Table B, 0 to 10 scale (0 no effect, 10 complete control)
[35] = flood test, listed under Postemergence, Rate 250 g/ha, scale 0 to 10, 0 no effect, 10 complete control
[36] = Postemergence, Rate 250 g/ha, scale 0 to 10
[37] = Preemergence, Rate 62 g/ha, scale of 0 to 10 where 0 is no effect and 10 is complete control
[38] = Rate 62 g/ha, Postemergence, scale 0 to 10, 0 no effect, 10 complete control
[39] = Rate 125 g/ha, Postemergence, scale 0 to 10, 0 is no effect, 10 is complete control
[40] = Rate 500 g/ha, Postemergence, scale 0 to 10, 0 is no effect, 10 is complete control

CC(C)N(C(=O)n1oc(=O)n(C(C)Cl)c1=O)c1ccc(F)cc1 (stereo not drawn) [Compound 393]
Plant response rating, Morningglory [1, 5]: 0 | Morningglory plant response rating [1, 6]: 0 | Plant response rating, Morningglory [1, 7]: 0 | Plant response rating, Morningglory [1, 8]: 0 | Morningglory plant response rating [1, 9]: 0 | Morningglory plant response rating [1, 10]: 2 | Morningglory plant response rating [1, 11]: 0 | Plant response rating, Giant foxtail [2, 12]: 8 | Plant response rating, Giant foxtail [2, 5]: 9 | Giant foxtail plant response rating [2, 6]: 9 | Plant response rating, Giant foxtail [2, 7]: 1 | Plant response rating, Giant foxtail [2, 8]: 9 | Giant foxtail plant response rating [2, 9]: 10 | Giant foxtail plant response rating [2, 10]: 10 | Giant foxtail plant response rating [2, 11]: 5 | Plant response rating, Rice (0 to 10 scale, 0 is no effect, 10 is complete control) [3, 13]: 0 | Rice plant response rating (0 to 10 scale, 0 is no effect, 10 is complete control) [3, 14]: 0 | Rice plant response rating [3, 15]: 0 | Rice plant response rating [3, 16]: 0 | Plant response rating, Ducksalad (0 to 10 scale, 0 is no effect, 10 is complete control) [4, 13]: 0 | Ducksalad plant response rating (0 to 10 scale, 0 is no effect, 10 is complete control) [4, 14]: 0 | Ducksalad plant response rating [4, 15]: 0 | Ducksalad plant response rating [4, 16]: 0

CC(C)N(C(=O)n1oc(=O)n(CNC(=O)c2ccccc2)c1=O)c1ccc(F)cc1F [Compound 619]
Plant response rating, Morningglory [1, 17]: 0 | Plant response rating, Morningglory [1, 18]: 1 | Morningglory plant response rating [1, 19]: 1 | Plant response rating, Morningglory [1, 6]: 1 | Morningglory plant response rating [1, 7]: 0 | Morningglory plant response rating [1, 8]: 0 | Plant response rating, Morningglory [1, 20]: 0 | Plant response rating, Morningglory [1, 10]: 0 | Plant response rating, Giant foxtail [2, 17]: 0 | Plant response rating, Giant foxtail [2, 18]: 0 | Giant foxtail plant response rating [2, 19]: 0 | Plant response rating, Giant foxtail [2, 6]: 3 | Giant foxtail plant response rating [2, 7]: 0 | Giant foxtail plant response rating [2, 8]: 3 | Plant response rating, Giant foxtail [2, 20]: 7 | Plant response rating, Giant foxtail [2, 10]: 8 | Plant response rating, Rice (0 to 10 scale, 0 is no effect, 10 is complete control) [3, 13]: 0 | Rice plant response rating (0 to 10 scale, 0 is no effect, 10 is complete control) [3, 14]: 0 | Rice plant response rating [3, 21]: 0 | Rice plant response rating [3, 22]: 0 | Plant response rating, Ducksalad (0 to 10 scale, 0 is no effect, 10 is complete control) [4, 13]: 0 | Ducksalad plant response rating (0 to 10 scale, 0 is no effect, 10 is complete control) [4, 14]: 0 | Ducksalad plant response rating [4, 21]: 0 | Ducksalad plant response rating [4, 22]: 0

CSCCn1c(=O)on(C(=O)N(c2ccccc2)C(C)C)c1=O [Compound 419]
Plant response rating, Morningglory [1, 5]: 5 | Morningglory plant response rating [1, 6]: 5 | Plant response rating, Morningglory [1, 7]: 0 | Plant response rating, Morningglory [1, 8]: 0 | Morningglory plant response rating [1, 23]: 1 | Morningglory plant response rating [1, 24]: 2 | Plant response rating, Giant foxtail [2, 12]: 0 | Plant response rating, Giant foxtail [2, 5]: 1 | Giant foxtail plant response rating [2, 6]: 6 | Plant response rating, Giant foxtail [2, 7]: 0 | Plant response rating, Giant foxtail [2, 8]: 1 | Giant foxtail plant response rating [2, 23]: 2 | Giant foxtail plant response rating [2, 24]: 5 | Giant foxtail plant response rating [2, 11]: 0 | Rice plant response rating [3, 25]: 2 | Plant response rating, Rice [3, 26]: 0 | Plant response rating, Ducksalad ([4]; Postemergence (flood test), Rate 125 g/ha, scale 0 to 10, 0 is no effect, 10 is complete control): 0 | Ducksalad plant response rating [4, 25]: 0 | Ducksalad plant response rating ([4]; Rate 62 g/ha, Postemergence (flood test species), scale of 0 to 10 where 0 is no effect and 10 is complete control): 0 | Plant response rating, Ducksalad [4, 26]: 0

Cc1ccccc1-n1c(=O)on(C(=O)N(c2ccc(F)cc2F)C(C)C)c1=O [Compound 25]
Morningglory plant response rating [1, 17]: 1 | Morningglory plant response rating [1, 27]: 2 | Plant response rating, Morningglory [1, 28]: 0 | Plant response rating, Morningglory [1, 29]: 0 | Plant response rating, Morningglory [1, 9]: 0 | Morningglory plant response rating [1, 30]: 0 | Morningglory plant response rating [1, 31]: 1 | Morningglory plant response rating [1, 32]: 2 | Giant foxtail plant response rating [2, 17]: 3 | Giant foxtail plant response rating [2, 27]: 8 | Plant response rating, Giant foxtail [2, 28]: 5 | Plant response rating, Giant foxtail [2, 29]: 7 | Plant response rating, Giant foxtail [2, 9]: 10 | Giant foxtail plant response rating [2, 30]: 10 | Giant foxtail plant response rating [2, 31]: 5 | Giant foxtail plant response rating [2, 32]: 8 | Rice plant response rating [3, 17]: 0 | Rice plant response rating [3, 33]: 0 | Rice plant response rating [3, 34]: 3 | Rice plant response rating [3, 35]: 0 | Ducksalad plant response rating [4, 17]: 0 | Ducksalad plant response rating [4, 33]: 0 | Ducksalad plant response rating [4, 34]: 0 | Ducksalad plant response rating [4, 35]: 0

CC(C)N(C(=O)n1oc(=O)n(CC#N)c1=O)c1ccc(Cl)cc1 [Compound 476]
Morningglory plant response rating [1, 36]: 0 | Plant response rating, Morningglory [1, 37]: 0 | Plant response rating, Morningglory [1, 8]: 0 | Morningglory plant response rating [1, 23]: 0 | Morningglory plant response rating [1, 24]: 0 | Morningglory plant response rating [1, 38]: 0 | Morningglory plant response rating [1, 39]: 0 | Giant foxtail plant response rating [2, 36]: 0 | Giant foxtail plant response rating [2, 6]: 0 | Plant response rating, Giant foxtail [2, 37]: 0 | Plant response rating, Giant foxtail [2, 8]: 0 | Giant foxtail plant response rating [2, 23]: 0 | Giant foxtail plant response rating [2, 24]: 0 | Giant foxtail plant response rating [2, 38]: 0 | Giant foxtail plant response rating [2, 39]: 0 | Plant response rating, Rice (0 to 10 scale, 0 is no effect, 10 is complete control) [3, 13]: 0 | Rice plant response rating (0 to 10 scale, 0 is no effect, 10 is complete control) [3, 14]: 0 | Rice plant response rating [3, 21]: 0 | Rice plant response rating [3, 16]: 0 | Plant response rating, Ducksalad (0 to 10 scale, 0 is no effect, 10 is complete control) [4, 13]: 0 | Ducksalad plant response rating (0 to 10 scale, 0 is no effect, 10 is complete control) [4, 14]: 0 | Ducksalad plant response rating [4, 21]: 0 | Ducksalad plant response rating [4, 16]: 0

CC[C@@H](C)n1c(=O)on(C(=O)N(c2ccc(F)cc2F)C(C)C)c1=O [Compound 667]
Plant response rating, Morningglory [1, 17]: 2 | Morningglory plant response rating [1, 18]: 2 | Morningglory plant response rating [1, 19]: 4 | Morningglory plant response rating [1, 37]: 0 | Morningglory plant response rating [1, 8]: 1 | Plant response rating, Morningglory [1, 20]: 3 | Plant response rating, Morningglory [1, 10]: 6 | Morningglory plant response rating [1, 40]: 6 | Plant response rating, Giant foxtail [2, 17]: 5 | Giant foxtail plant response rating [2, 18]: 9 | Giant foxtail plant response rating [2, 19]: 9 | Giant foxtail plant response rating [2, 37]: 10 | Giant foxtail plant response rating [2, 8]: 10 | Plant response rating, Giant foxtail [2, 20]: 10 | Plant response rating, Giant foxtail [2, 10]: 10 | Giant foxtail plant response rating [2, 40]: 9 | Plant response rating, Rice (0 to 10 scale, 0 is no effect, 10 is complete control) [3, 13]: 0 | Rice plant response rating (0 to 10 scale, 0 is no effect, 10 is complete control) [3, 14]: 0 | Rice plant response rating [3, 21]: 0 | Rice plant response rating [3, 22]: 0 | Plant response rating, Ducksalad (0 to 10 scale, 0 is no effect, 10 is complete control) [4, 13]: 0 | Ducksalad plant response rating (0 to 10 scale, 0 is no effect, 10 is complete control) [4, 14]: 0 | Ducksalad plant response rating [4, 21]: 0 | Ducksalad plant response rating [4, 22]: 0
